Measured values reported in PubChem BioAssay (NCI).
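Abbreviation: GI50, concentration required for 50% inhibition of growth. TGI denotes the concentration required for complete inhibition of growth.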

Tests used:
Assay in all cases: NCI tumour cell line growth inhibition, 384-well format
[1] = test system: IGROV1 ovarian
[2] = test system: SR leukemia
[3] = test system: NCI-H23 lung
[4] = test system: SNB-75 CNS
[5] = test system: HS 578T breast
[6] = test system: OVCAR-3 ovarian
[7] = test system: TK-10 renal
[8] = test system: CCRF-CEM leukemia
[9] = test system: OVCAR-5 ovarian
[10] = test system: HCT-15 colon
[11] = test system: RXF 393 renal
[12] = test system: NCI-H322M lung
[13] = test system: SF-539 CNS

Row | SMILES | GI50 [1] [nM] | TGI [1] [nM] | GI50 [2] [nM] | TGI [2] [nM] | GI50 [3] [nM] | TGI [3] [nM] | GI50 [4] [nM] | TGI [4] [nM] | GI50 [5] [nM] | TGI [5] [nM] | GI50 [6] [nM] | TGI [6] [nM] | GI50 [7] [nM] | TGI [7] [nM] | GI50 [8] [nM] | TGI [8] [nM] | GI50 [9] [nM] | TGI [9] [nM] | GI50 [10] [nM] | TGI [10] [nM] | also measured
1 | Cc1cc(Nc2ccc(NC(=O)c3ccc(Nc4ccnc5ccccc45)cc3)cc2)nc(N)n1 | 4970 | 9370 | 172 | 313 | 1010 | 2840 | 2400 | 4700 | 1050 | 2240 | 189 | 333 | 5630 | 17500 | 191 | 335 | 1850 | 3740 | 3870 | 13800 | GI50 [11]: 750 nM; TGI [11]: 1840 nM; GI50 [12]: 418 nM; TGI [12]: 1260 nM; GI50 [13]: 552 nM; TGI [13]: 1020 nM
2 | CNCc1ccccc1-c1csc([C@@H](C)Nc2nc(C)nc3cc(OC)c(OC)cc23)c1 | 1310 | 2590 | 676 | 1940 | 1250 | 2540 | 1300 | 2570 | 302 | 2110 | 1260 | 2520 | 1450 | 2770 | 1070 | 2260 | 1510 | 2860 | 1500 | 2830 | GI50 [11]: 414 nM; TGI [11]: 1670 nM; GI50 [12]: 1210 nM; TGI [12]: 2480 nM; GI50 [13]: 1140 nM; TGI [13]: 2360 nM
